Converted amounts (≈) assume the structure as drawn.
What was measured:
[1] = test system: Staphylococcus epidermidis IAM 1296; test: MIC by agar dilution method; format: cell-based; details: IAM1296, Modified MullerHinton agar medium
Excerpt: (§1) The minimum inhibitory concentrations (MIC) of PC-766B against various microorgnisms as measured by the agar dilution method are shown in Table 4.
(§2) Note: *^1 1: Modified MullerHinton agar medium; 2: Sabouraud's agar

[2] = test system: Bacillus subtilis ATCC 6633; test: MIC by agar dilution method; format: cell-based; details: ATCC6633, Modified MullerHinton agar medium
Excerpt: as §1, §2

Bacillus cereus IAM 1029 = test: MIC by agar dilution method; format: cell-based; details: IAM1029, Modified MullerHinton agar medium
Excerpt: as §1, §2

[3] = test system: Escherichia coli NIJH JC-2; test: MIC by agar dilution method; format: cell-based; details: NIJHJC2, Modified MullerHinton agar medium
Excerpt: as §1, §2

Serratia marcescens ×100 = test: MIC by agar dilution method; format: cell-based; details: Modified MullerHinton agar medium
Excerpt: as §1, §2

[4] = test system: Cryptococcus neoformans MTU 13001; test: MIC by agar dilution method; format: cell-based; details: MTU13001, Sabouraud's agar medium
Excerpt: as §1, §2

[5] = test system: Candida albicans MTU 12001; test: MIC by agar dilution method; format: cell-based; details: MTU12001, Sabouraud's agar medium
Excerpt: as §1, §2

[6] = test system: Klebsiella pneumoniae ATCC 10031; test: MIC by agar dilution method; format: cell-based; details: ATCC10031, Modified MullerHinton agar medium
Excerpt: as §1, §2

[7] = test system: Streptococcus pyogenes Cook; test: MIC by agar dilution method; format: cell-based; details: Modified MullerHinton agar medium
Excerpt: as §1, §2

Pseudomonas aeruginosa T = test: MIC by agar dilution method; format: cell-based; details: Modified MullerHinton agar medium
Excerpt: as §1, §2

[8] = test system: Trichophyton mentagrophytes MTU 19001; test: MIC by agar dilution method; format: cell-based; details: MTU19001, Sabouraud's agar medium
Excerpt: as §1, §2

[9] = test system: Proteus mirabilis GN 2425; test: MIC by agar dilution method; format: cell-based; details: GN2425, Modified MullerHinton agar medium
Excerpt: as §1, §2

[10] = test system: Aspergillus fumigatus MTU 16001; test: MIC by agar dilution method; format: cell-based; details: MTU16001, Sabouraud's agar medium
Excerpt: as §1, §2

[11] = test system: Micrococcus luteus ATCC 9341; test: MIC by agar dilution method; format: cell-based; details: ATCC9341, Modified MullerHinton agar medium
Excerpt: as §1, §2

[12] = test system: Staphylococcus aureus 209P; test: MIC by agar dilution method; format: cell-based; details: Modified MullerHinton agar medium
Excerpt: as §1, §2

Solubility = format: physicochemical

CC=CC=CC1OC(O)(C(C)C(O)C(C)C2OC(=O)C(OC)=CC(C)=CC(C)C(O)C(C)CC(C)=CC=CC2OC)CC(OC2CC(O)C(O)C(C)O2)C1C (centres unmarked) [PC-766B]
MIC [1]: 6.25 µg/mL (≈ 8.04 µM)
MIC [2]: 6.25 µg/mL (≈ 8.04 µM)
MIC (Bacillus cereus IAM 1029): 3.13 µg/mL (≈ 4.03 µM)
MIC [3]: > 200 µg/mL
MIC (Serratia marcescens ×100): > 200 µg/mL
MIC [4]: 12.5 µg/mL (≈ 16.1 µM)
MIC [5]: > 100 µg/mL
MIC [6]: > 200 µg/mL
MIC [7]: 3.13 µg/mL (≈ 4.03 µM)
MIC (Pseudomonas aeruginosa T): > 200 µg/mL
MIC [8]: > 100 µg/mL
MIC [9]: > 200 µg/mL
MIC [10]: > 100 µg/mL
MIC [11]: 1.56 µg/mL (≈ 2.01 µM)
MIC [12]: 12.5 µg/mL (≈ 16.1 µM)
Solubility (Solubility; methanol, chloroform and ethyl acetate): soluble in methanol, chloroform and ethyl acetate
Solubility (Solubility; n-hexane and water): insoluble in n-hexane and water
